Source: US20230085307A1, “PYRIDAZINONE COMPOUND AND HERBICIDE” (NISSAN CHEMICAL CORPORATION, priority 2019, published 2023)

How the values were obtained:
oval-leafed pondweed [1] = experiment: Test Example 1: herbicidal activity, application before weed generation under submerged conditions (Table 16, symbol C); assay type: in vivo, oval-leafed pondweed (Monochoria vaginalis); conditions: 320 g/ha applied herbicide
In short: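 Emulsion formulation, water-diluted to set dose, was put onto the flooded surface (4 cm depth, alluvial soil) the same day weeds were sown and 2.5-leaf rice transplanted. After 3 weeks at 25-30 °C under glass, each species was rated 0 (≤5% kill) to 5 (≥90% kill).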

Italian ryegrass [2] = experiment: Test Example 4: herbicidal effect by soil treatment (Table 19, symbol K); assay type: in vivo, Italian ryegrass (Lolium multiflorum); conditions: for K: Italian ryegrass, herbicidal effect rating: AAH 320 g/ha
In short: (§1)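 Three weeks of greenhouse growth at 25° C. to 30° C. followed a uniform surface spray of water-diluted emulsion at a predetermined herbicide amount. Seeds had been sown beforehand under about 1.5 cm of sterilized diluvial soil. Grading followed criteria set out in an earlier test.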

persian speedwell = experiment: Test Example 5: herbicidal effect by foliage application, plastic box (Table 20, symbol R); assay type: in vivo, Persian speedwell (Veronica persica); conditions: foliage application, AAH 320 g/ha, three weeks after application
In short: (§2)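 Plants sown in sterilized diluvial soil and grown 14 days in a greenhouse at 25° C to 30° C, then sprayed on the foliage with the compound's emulsion diluted in water to a predetermined herbicide amount. Injury to weeds and crops scored three weeks after application on a visual rating scale.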

oval-leafed pondweed [3] = experiment: Test Example 2: herbicidal activity, application during weed generation under submerged conditions (Table 17, symbol C); assay type: in vivo, oval-leafed pondweed (Monochoria vaginalis); conditions: AAH 320 g/ha; application during weed generation, submerged conditions
In short: (§3)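 Wagner pot, alluvial soil, 4 cm flood; mixed sowing of all species; greenhouse 25° C.–30° C. Emulsifiable formulation, water-diluted to predetermined dose, applied to paddy water at 1–2 leaf stage. Effect rated at 3 wk using the earlier test's scoring criteria.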

Italian ryegrass [4] = experiment: Test Example 5: herbicidal effect by foliage application, plastic box (Table 20, symbol K); assay type: in vivo, Italian ryegrass (Lolium multiflorum); conditions: foliage application, AAH 320 g/ha, three weeks after application
In short: as §2

blackgrass = experiment: Test Example 4: herbicidal effect by soil treatment (Table 19, symbol J); assay type: in vivo, blackgrass (Alopecurus myosuroides); conditions: for J: blackgrass, herbicidal effect rating: AAH 320 g/ha
In short: as §1

redroot pigweed = experiment: Test Example 4: herbicidal effect by soil treatment (Table 19, symbol N); assay type: in vivo, redroot pigweed (Amaranthus retroflexus); conditions: for N: redroot pigweed, herbicidal effect rating: AAH 320 g/ha
In short: as §1

late watergrass = experiment: Test Example 2: herbicidal activity, application during weed generation under submerged conditions (Table 17, symbol A); assay type: in vivo, late watergrass (Echinochloa oryzicola); conditions: AAH 320 g/ha; application during weed generation, submerged conditions
In short: as §3

wild oat [5] = experiment: Test Example 5: herbicidal effect by foliage application, plastic box (Table 20, symbol I); assay type: in vivo, wild oat (Avena fatua); conditions: foliage application, AAH 320 g/ha, three weeks after application
In short: as §2

chickweed = experiment: Test Example 4: herbicidal effect by soil treatment (Table 19, symbol P); assay type: in vivo, common chickweed (Stellaria media); conditions: for P: chickweed, herbicidal effect rating: AAH 320 g/ha
In short: as §1

velvetleaf [6] = experiment: Test Example 5: herbicidal effect by foliage application, plastic box (Table 20, symbol M); assay type: in vivo, velvetleaf (Abutilon theophrasti); conditions: foliage application, AAH 320 g/ha, three weeks after application
In short: as §2

velvetleaf [7] = experiment: Test Example 4: herbicidal effect by soil treatment (Table 19, symbol M); assay type: in vivo, velvetleaf (Abutilon theophrasti); conditions: for M: velvetleaf, herbicidal effect rating: AAH 320 g/ha
In short: as §1

green foxtail [8] = experiment: Test Example 5: herbicidal effect by foliage application, plastic box (Table 20, symbol G); assay type: in vivo, green foxtail (Setaria viridis); conditions: foliage application, AAH 320 g/ha, three weeks after application
In short: as §2

wild oat [9] = experiment: Test Example 4: herbicidal effect by soil treatment (Table 19, symbol I); assay type: in vivo, wild oat (Avena fatua); conditions: for I: wild oat, herbicidal effect rating: AAH 320 g/ha
In short: as §1

green foxtail [10] = experiment: Test Example 4: herbicidal effect by soil treatment (Table 19, symbol G); assay type: in vivo, green foxtail (Setaria viridis); conditions: for G: green foxtail, herbicidal effect rating: AAH 320 g/ha
In short: as §1

southern crabgrass = experiment: Test Example 5: herbicidal effect by foliage application, plastic box (Table 20, symbol F); assay type: in vivo, southern crabgrass (Digitaria ciliaris); conditions: foliage application, AAH 320 g/ha, three weeks after application
In short: as §2

rice flat sedge = experiment: Test Example 3: herbicidal effect by foliage application, Wagner pot (Table 18, symbol E); assay type: in vivo, rice flat sedge (Cyperus iria); conditions: 320 g/ha
In short: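 Plants were sown in alluvial soil held under 0.1–0.5 cm standing water and grown 14 days in a greenhouse at 25–30 °C. An emulsifiable formulation, water-diluted to the set dose, was then sprayed onto the foliage, and effects were scored three weeks later using previously defined criteria.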

[11] = amount of applied herbicide 320 g/ha

Row | SMILES | Herbicidal effect on C: oval-leafed pondweed (grade 0-5) (oval-leafed pondweed [1]) | R: persian speedwell, herbicidal effect (persian speedwell) | herbicidal effect rating, C: oval-leafed pondweed (oval-leafed pondweed [3]) | K: Italian ryegrass, herbicidal effect (Italian ryegrass [4]) | herbicidal effect rating, A: late watergrass (late watergrass) | I: wild oat, herbicidal effect (wild oat [5]) | M: velvetleaf, herbicidal effect (velvetleaf [6]) | G: green foxtail, herbicidal effect (green foxtail [8]) | F: southern crabgrass, herbicidal effect (southern crabgrass) | herbicidal effect on E (rice flat sedge), rating 0-5 (rice flat sedge) | K: Italian ryegrass, herbicidal effect rating (Italian ryegrass [2]) | J: blackgrass, herbicidal effect rating (blackgrass) | N: redroot pigweed, herbicidal effect rating (redroot pigweed) | P: chickweed, herbicidal effect rating (chickweed) | M: velvetleaf, herbicidal effect rating (velvetleaf [7]) | I: wild oat, herbicidal effect rating (wild oat [9]) | G: green foxtail, herbicidal effect rating (green foxtail [10]) | further results
1 | CCCC(=O)Oc1c(C)nn(C)c(=O)c1-c1c(-c2ccc3c(c2)CCO3)sc2ccccc12 [1-102] | 4 (Herbicidal rate of 70% or more and less than 90%) | 5 (Herbicidal rate of 90% or more (almost completely withered)) | 5 (Herbicidal rate of 90% or more (almost completely withered)) | 3 (Herbicidal rate of 40% or more and less than 70%) | 3 (Herbicidal rate of 40% or more and less than 70%) | 1 (Herbicidal rate of 5% or more and less than 20%) | 5 (Herbicidal rate of 90% or more (almost completely withered)) | 5 (Herbicidal rate of 90% or more (almost completely withered)) | 4 (Herbicidal rate of 70% or more and less than 90%) | 5 (Herbicidal rate of 90% or more (almost completely withered)) |  |  |  |  |  |  |  | herbicidal effect rating, K: Italian ryegrass (Italian ryegrass [2]; [11]): 3 (Herbicidal rate of 40% or more and less than 70%); herbicidal effect rating, J: blackgrass (blackgrass; [11]): 0 (Herbicidal rate of 5% or less (almost no effect)); herbicidal effect rating, N: redroot pigweed (redroot pigweed; [11]): 4 (Herbicidal rate of 70% or more and less than 90%); herbicidal effect rating, P: chickweed (chickweed; [11]): 5 (Herbicidal rate of 90% or more (almost completely withered)); herbicidal effect rating, M: velvetleaf (velvetleaf [7]; [11]): 1 (Herbicidal rate of 5% or more and less than 20%); herbicidal effect rating, I: wild oat (wild oat [9]; [11]): 1 (Herbicidal rate of 5% or more and less than 20%); herbicidal effect rating, G: green foxtail (green foxtail [10]; [11]): 5 (Herbicidal rate of 90% or more (almost completely withered))
2 | CCCC(=O)Oc1c(C)nn(C)c(=O)c1-c1c(-c2ccc(C(C)C)cc2)sc2ccccc12 [1-126] | 3 (Herbicidal rate of 40% or more and less than 70%) | 4 (Herbicidal rate of 70% or more and less than 90%) | 1 (Herbicidal rate of 5% or more and less than 20%) | 4 (Herbicidal rate of 70% or more and less than 90%) | 2 (Herbicidal rate of 20% or more and less than 40%) | 2 (Herbicidal rate of 20% or more and less than 40%) | 4 (Herbicidal rate of 70% or more and less than 90%) | 2 (Herbicidal rate of 20% or more and less than 40%) | 1 (Herbicidal rate of 5% or more and less than 20%) | 4 (Herbicidal rate of 70% or more and less than 90%) | 3 (Herbicidal rate of 40% or more and less than 70%) | 0 (Herbicidal rate of 5% or less (almost no effect)) | 3 (Herbicidal rate of 40% or more and less than 70%) | 2 (Herbicidal rate of 20% or more and less than 40%) | 0 (Herbicidal rate of 5% or less (almost no effect)) | 0 (Herbicidal rate of 5% or less (almost no effect)) | 0 (Herbicidal rate of 5% or less (almost no effect)) | 
3 | COCc1ccc(-c2sc3ccccc3c2-c2c(O)c(C)nn(C)c2=O)cc1 [1-131] | 0 (Herbicidal rate of 5% or less (almost no effect)) | 5 (Herbicidal rate of 90% or more (almost completely withered)) | 3 (Herbicidal rate of 40% or more and less than 70%) | 5 (Herbicidal rate of 90% or more (almost completely withered)) | 0 (Herbicidal rate of 5% or less (almost no effect)) | 4 (Herbicidal rate of 70% or more and less than 90%) | 5 (Herbicidal rate of 90% or more (almost completely withered)) | 5 (Herbicidal rate of 90% or more (almost completely withered)) | 5 (Herbicidal rate of 90% or more (almost completely withered)) | 5 (Herbicidal rate of 90% or more (almost completely withered)) | 5 (Herbicidal rate of 90% or more (almost completely withered)) | 1 (Herbicidal rate of 5% or more and less than 20%) | 5 (Herbicidal rate of 90% or more (almost completely withered)) | 5 (Herbicidal rate of 90% or more (almost completely withered)) | 5 (Herbicidal rate of 90% or more (almost completely withered)) | 2 (Herbicidal rate of 20% or more and less than 40%) | 5 (Herbicidal rate of 90% or more (almost completely withered)) | 
4 | Cc1nn(C)c(=O)c(-c2c(-c3ccc(OCc4ccccc4)cc3)sc3ccccc23)c1O [1-133] | 3 (Herbicidal rate of 40% or more and less than 70%) | 5 (Herbicidal rate of 90% or more (almost completely withered)) | 3 (Herbicidal rate of 40% or more and less than 70%) | 1 (Herbicidal rate of 5% or more and less than 20%) | 1 (Herbicidal rate of 5% or more and less than 20%) | 0 (Herbicidal rate of 5% or less (almost no effect)) | 0 (Herbicidal rate of 5% or less (almost no effect)) | 5 (Herbicidal rate of 90% or more (almost completely withered)) | 3 (Herbicidal rate of 40% or more and less than 70%) | 5 (Herbicidal rate of 90% or more (almost completely withered)) | 0 (Herbicidal rate of 5% or less (almost no effect)) | 0 (Herbicidal rate of 5% or less (almost no effect)) | 5 (Herbicidal rate of 90% or more (almost completely withered)) | 0 (Herbicidal rate of 5% or less (almost no effect)) | 0 (Herbicidal rate of 5% or less (almost no effect)) | 0 (Herbicidal rate of 5% or less (almost no effect)) | 3 (Herbicidal rate of 40% or more and less than 70%) | 
